# Source: patent publication US6737383B1, “Herbicidal oxadiazolidines” (priority 1999, dated 2004)
# How the values were obtained:
# galium [1] = assay: Test E galium; format: in vivo, Galium aparine; settings: Preemergence
# downy brome [2] = assay: Test E downy brome; format: in vivo, Bromus tectorum; settings: Preemergence
# winter barley = assay: Test E winter barley; format: in vivo, Hordeum vulgare; settings: Postemergence
# How it was run: (§1)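 Postemergence: 60:40 sandy loam/greenhouse potting mix, 1- to 4-leaf stage. Formulation: solvent plus surfactant. Assessment: visual comparison with untreated controls at ~21–28 days.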
# chickweed [3] = assay: Test E chickweed; format: in vivo, Stellaria media; settings: Preemergence
# sunflower [4] = assay: Test E sunflower; format: in vivo, Helianthus annuus; settings: Preemergence
# windgrass = assay: Test E windgrass; format: in vivo, Apera spica-venti; settings: Preemergence
# chickweed [5] = assay: Test E chickweed; format: in vivo, Stellaria media; settings: Postemergence
# Protocol: (§2) Compounds evaluated in this test were formulated in a non-phytotoxic solvent mixture which included a surfactant and applied to plants that were in the 1- to 4-leaf stage (postemergence application). A mixture of sandy loam soil and greenhouse potting mix in a 60:40 ratio was used for the postemergence test.
# (§3) Plantings of these crops and weed species were adjusted to produce plants of appropriate size for the postemergence test. All plant species were grown using normal greenhouse practices. Crop and weed species include annual bluegrass (Poa annua), blackgrass (Alopecurus myosuroides), black nightshade (Solanum nigra), chickweed (Stellaria media), common poppy (Papaver rhoeas), deadnettle (Lamium amplexicaule), downy brome (Bromus tectorum), field violet (Viola arvensis), galium (Galium aparine), green foxtail (Setaria viridis), Italian ryegrass (Lolium multiflorum), jointed goatgrass (Aegilops cylindrica), kochia (Kochia scoparia), lambsquarters (Chenopodium album), littleseed canarygrass (Phalaris minor), rape (Brassica napus), redroot pigweed (Amaranthus retroflexus), Russian thistle (Salsola kali), scentless chamomile (Matricaria inodora), spring barley (Hordeum vulgare), sugar beet (Beta vulgaris), sunflower (Helianthus annuus), ivyleaf speedwell (Veronica hederaefolia), spring wheat (Triticum aestivum), winter wheat (Triticum aestivum), wild buckwheat (Polygonum convolvulus), wild mustard (Sinapis arvensis), wild oat (Avena fatua), windgrass (Apera spica-venti) and winter barley (Hordeum vulgare).
# (§4) Treated plants and untreated controls were maintained in a greenhouse for approximately 21 to 28 days, after which all treated plants were compared to untreated controls and visually evaluated. […] A dash response (-) means no test result.
# deadnettle [6] = assay: Test E deadnettle; format: in vivo, Lamium amplexicaule; settings: Postemergence
# Protocol: as §2, §3, §4
# sunflower [7] = assay: Test E sunflower; format: in vivo, Helianthus annuus; settings: Postemergence
# Protocol: as §3, with “Plantings of these crops and weed species were adjusted to produce plants of appropriate size for the postemergence test.” left out
# as §4
# Italian ryegrass = assay: Test E Italian ryegrass; format: in vivo, Lolium multiflorum; settings: Postemergence
# How it was run: as §1
# lambsquarters = assay: Test E lambsquarters; format: in vivo, Chenopodium album; settings: Preemergence
# ivyleaf speedwell = assay: Test E postemergence ivyleaf speedwell; format: in vivo, Veronica hederaefolia
# Protocol: as §2, §3, §4
# black nightshade = assay: Test E black nightshade; format: in vivo, Solanum nigra; settings: Postemergence
# How it was run: as §1
# Russian thistle = assay: Test E Russian thistle; format: in vivo, Salsola kali; settings: Postemergence
# Protocol: (§5) […] A mixture of sandy loam soil and greenhouse potting mix in a 60:40 ratio was used for the postemergence test.
# as §3, §4
# galium [8] = assay: Test E galium; format: in vivo, Galium aparine; settings: Postemergence
# Protocol: as §5, §3, §4
# scentless chamomile = assay: Test E scentless chamomile; format: in vivo, Matricaria inodora; settings: Postemergence
# Protocol: as §2, §3, §4
# annual bluegrass [9] = assay: Test E annual bluegrass; format: in vivo, Poa annua; settings: Preemergence
# deadnettle [10] = assay: Test E deadnettle; format: in vivo, Lamium amplexicaule; settings: Preemergence
# downy brome [11] = assay: Test E downy brome; format: in vivo, Bromus tectorum; settings: Postemergence; for Plant response rating, Downy brome: 0 to 100 scale
# How it was run: as §1
# kochia = assay: Test E kochia; format: in vivo, Kochia scoparia; settings: Preemergence
# green foxtail = assay: Test E green foxtail; format: in vivo, Setaria viridis; settings: Postemergence
# Protocol: as §2, §3, §4
# annual bluegrass [12] = assay: Test E annual bluegrass; format: in vivo, Poa annua; settings: Postemergence
# How it was run: as §1
# [13] = Rate 62 g/ha, 0 to 100 scale, 0 no effect, 100 complete control
# [14] = Rate 125 g/ha, 0 to 100 scale (0 no effect, 100 complete control)
# [15] = Rate 250 g/ha, 0 to 100 scale (0 no effect, 100 complete control)
smiles,measurement,setting,value
C=CCn1c(=O)on(C(=O)N(c2ccccc2)C(C)C)c1=O [Compound 93],"Plant response rating, Galium",galium [1]; [13],10
same,"Plant response rating, Galium",galium [1]; [14],15
same,"Plant response rating, Galium","galium [1]; Rate 250 g/ha, 0 to 100 scale",100
same,"Plant response rating, Downy brome",downy brome [2]; [13],40
same,"Plant response rating, Downy brome",downy brome [2]; [14],60
same,"Plant response rating, Downy brome","downy brome [2]; Rate 250 g/ha, 0 to 100 scale",20
same,"Plant response rating, Barley (winter)","winter barley; Rate 62 g/ha, 0 to 100 scale",0
same,"Plant response rating, Barley (winter)","winter barley; Rate 125 g/ha, 0 to 100 scale",0
same,"Plant response rating, Barley (winter)",winter barley; [15],0
same,"Plant response rating, Chickweed",chickweed [3]; [13],60
same,"Plant response rating, Chickweed",chickweed [3]; [14],20
same,"Plant response rating, Chickweed","chickweed [3]; Rate 250 g/ha, 0 to 100 scale",100
same,"Plant response rating, Sunflower",sunflower [4]; [13],10
same,"Plant response rating, Sunflower",sunflower [4]; [14],5
same,"Plant response rating, Sunflower","sunflower [4]; Rate 250 g/ha, 0 to 100 scale",20
same,"Plant response rating, Windgrass",windgrass; [13],100
same,"Plant response rating, Windgrass",windgrass; [14],100
same,"Plant response rating, Chickweed","chickweed [5]; Rate 62 g/ha, 0 to 100 scale",0
same,"Plant response rating, Chickweed","chickweed [5]; Rate 125 g/ha, 0 to 100 scale",0
same,"Plant response rating, Chickweed",chickweed [5]; [15],0
same,"Plant response rating, Deadnettle","deadnettle [6]; Rate 62 g/ha, 0 to 100 scale",0
same,"Plant response rating, Deadnettle","deadnettle [6]; Rate 125 g/ha, 0 to 100 scale",0
same,"Plant response rating, Deadnettle",deadnettle [6]; [15],0
same,"Plant response rating, Sunflower","sunflower [7]; Rate 62 g/ha, 0 to 100 scale",0
same,"Plant response rating, Sunflower","sunflower [7]; Rate 125 g/ha, 0 to 100 scale",0
same,"Plant response rating, Sunflower",sunflower [7]; [15],0
same,"Plant response rating, I. Ryegrass","Italian ryegrass; Rate 62 g/ha, 0 to 100 scale",0
same,"Plant response rating, I. Ryegrass","Italian ryegrass; Rate 125 g/ha, 0 to 100 scale",0
same,"Plant response rating, I. Ryegrass",Italian ryegrass; [15],0
same,"Plant response rating, Lambsquarters",lambsquarters; [13],100
same,"Plant response rating, Lambsquarters",lambsquarters; [14],100
same,"Plant response rating, Lambsquarters","lambsquarters; Rate 250 g/ha, 0 to 100 scale",100
same,"Plant response rating, Veronica hedera","ivyleaf speedwell; Rate 62 g/ha, 0 to 100 scale",0
same,"Plant response rating, Veronica hedera","ivyleaf speedwell; Rate 125 g/ha, 0 to 100 scale",0
same,"Plant response rating, Veronica hedera",ivyleaf speedwell; [15],0
same,"Plant response rating, Blk nightshade","black nightshade; Rate 62 g/ha, 0 to 100 scale",0
same,"Plant response rating, Blk nightshade","black nightshade; Rate 125 g/ha, 0 to 100 scale",0
same,"Plant response rating, Blk nightshade",black nightshade; [15],50
same,"Plant response rating, Russian thistle","Russian thistle; Rate 62 g/ha, 0 to 100 scale",0
same,"Plant response rating, Russian thistle","Russian thistle; Rate 125 g/ha, 0 to 100 scale",0
same,"Plant response rating, Russian thistle",Russian thistle; [15],0
same,"Plant response rating, Galium","galium [8]; Rate 62 g/ha, 0 to 100 scale",0
same,"Plant response rating, Galium","galium [8]; Rate 125 g/ha, 0 to 100 scale",0
same,"Plant response rating, Galium",galium [8]; [15],0
same,"Plant response rating, Scentless chamo","scentless chamomile; Rate 62 g/ha, 0 to 100 scale",0
same,"Plant response rating, Scentless chamo","scentless chamomile; Rate 125 g/ha, 0 to 100 scale",0
same,"Plant response rating, Scentless chamo",scentless chamomile; [15],0
same,"Plant response rating, Annual bluegras",annual bluegrass [9]; [13],10
same,"Plant response rating, Annual bluegras",annual bluegrass [9]; [14],50
same,"Plant response rating, Annual bluegras","annual bluegrass [9]; Rate 250 g/ha, 0 to 100 scale",65
same,"Plant response rating, Deadnettle",deadnettle [10]; [13],10
same,"Plant response rating, Deadnettle",deadnettle [10]; [14],10
same,"Plant response rating, Deadnettle","deadnettle [10]; Rate 250 g/ha, 0 to 100 scale",85
same,"Plant response rating, Downy brome",downy brome [11]; Rate 62 g/ha,0
same,"Plant response rating, Downy brome",downy brome [11]; Rate 125 g/ha,0
same,"Plant response rating, Downy brortie",downy brome [11]; [15],0
same,"Plant response rating, Kochia",kochia; [13],0
same,"Plant response rating, Kochia",kochia; [14],0
same,"Plant response rating, Kochia","kochia; Rate 250 g/ha, 0 to 100 scale",20
same,"Plant response rating, Green foxtail","green foxtail; Rate 62 g/ha, 0 to 100 scale",0
same,"Plant response rating, Green foxtail","green foxtail; Rate 125 g/ha, 0 to 100 scale",0
same,"Plant response rating, Green foxtail",green foxtail; [15],0
same,"Plant response rating, Annual bluegras","annual bluegrass [12]; Rate 62 g/ha, 0 to 100 scale",20
same,"Plant response rating, Annual bluegras","annual bluegrass [12]; Rate 125 g/ha, 0 to 100 scale",20
same,"Plant response rating, Annual bluegras",annual bluegrass [12]; [15],50
